Measured values from patent US20260109707A1, “HETEROBIFUNCTIONAL COMPOUNDS AND METHODS OF TREATING DISEASE” (Halda Therapeutics OpCo. Inc., priority 2022, published 2026).
Read-outs that look alike come from different tables or passages of the source.

What was measured:
[1] = tested on: T-Rex 293 cell line SC3 cells having increased expression of androgen receptor protein due to exposure to doxycycline; test: Cellular growth inhibition assay, T-Rex 293 SC3 cells with doxycycline (CellTiter-Glo, 72 hours); format: cell-based; settings: T-Rex 293 SC3 cells with increased androgen receptor expression due to doxycycline (10 ng/mL)
Procedure, shortened: (§1)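 Doxycycline (10 ng/mL) was either included or omitted to toggle wild-type androgen receptor expression in SC3 cells, a T-Rex 293 clone, grown in stripped-serum, phenol red-free medium. After 72 hours with compound, viable cells were quantified by CellTiter-Glo 2.0.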

VCaP cells = test: Cellular growth inhibition assay for VCaP cells (CellTiter-Glo, 72 hours); format: cell-based, human
Procedure, shortened: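 Luminescent viability signal after 72 h of compound exposure gave GI50 values by four-parameter nonlinear regression. Compounds were added in 0.5% DMSO to cells plated 24 h earlier at 5000/well in DMEM containing 10% FBS.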

[2] = tested on: T-Rex 293 cell line SC3 cells lacking increased expression of androgen receptor protein; test: Cellular growth inhibition assay, T-Rex 293 SC3 cells without doxycycline (CellTiter-Glo, 72 hours); format: cell-based; settings: T-Rex 293 cell line SC3 cells not exposed to doxycycline (lacking increased androgen receptor expression)
Procedure, shortened: as §1

T47D cells = test: Cellular growth inhibition assay for T47D cells (CellTiter-Glo, 72 hours); format: cell-based, human; settings: 72 hours treatment
Method: T47D cells were purchased from American Type Cell Culture (ATCC Cat #HTB-133) and then seeded on poly-D-lysine coated, black clear-bottom 384-well plates at 3000/well in 25 μL Dulbecco's Modified Eagle Medium (DMEM) supplemented with 10% w/w Fetal bovine serum (FBS), 0.2 units/mL recombinant human insulin (Gibco Cat #12585014), and 1% w/w Pen-Strep. Pen-Strep is a commercially available mixture of penicillin G and streptomycin, which is used in mammalian cell culture media to prevent bacterial contamination. Dulbecco's Modified Eagle Medium (DMEM) supplemented with 10% w/w fetal bovine serum (FBS), 0.2 units/mL recombinant human insulin, and 1% w/w Pen-Strep is herein referred to as Treatment Medium. Following seeding of cells in the plates, the plates were spun at 300×g for 30 seconds, then equilibrated to room temperature for 30 minutes, and then deposited in a humidified tissue culture incubator maintained at 37° C. with 5% CO2.
At 24 hours after seeding of the cells, dilutions of test compound were prepared in DMSO and dissolved in Treatment Medium, to achieve a final DMSO concentration of 0.5% w/w, thereby providing the Test Compound Solution. A 25 μL aliquot of the Test Compound Solution was added to cells in the well plates. An equal volume of a solution containing DMSO and Treatment Medium was used as a negative control. Following treatment of cells with Test Compound Solution or said equal volume of a solution containing DMSO and Treatment Medium, the plates were spun at 300×g for 30 seconds, and then left in an incubator for 72 hours.
At the end of the treatment duration, cell viability was quantified with CellTiter-Glo 2.0 reagent (Promega Cat #G9243). For this purpose, plates were equilibrated to room temperature for 30 minutes, and then 25 μL of CellTiter-Glo 2.0 reagent was added to cells in the plate wells. Plates were then agitated on a shaker for two minutes at 500 rpm and subsequently incubated at room temperature for 10 minutes. Following incubation, the plates were spun at 3000×g for 30 seconds, then sealed with an optical adhesive cover, and luminescence readings were measured with an EnVision Plate Reader (Perkin Elmer).
Data was normalized using zero luminescence for baseline. A four-parameter non-linear regression curve fit was applied to dose-response data in GraphPad Prism data analysis software to determine the half-maximal growth inhibitory concentration (GI50) for each test compound.

Row | SMILES | GI50 (VCaP cells; Homo sapiens, VCaP, 72 h) | GI50 ([2]; 72 h) | GI50 (T47D cells; Homo sapiens, T47D, 72 h) | further results
1 | CCNC(=O)C[C@@H]1N=C(c2ccc(N(C)CC3CN(c4ccc(C(=O)N[C@H]5CC[C@H](Oc6ccc(C#N)c(Cl)c6)CC5)nn4)C3)cc2)c2c(sc(C)c2C)-n2c(C)nnc21 [I-30] | < 500 nM | 500 to 1500 nM | 500 to 1500 nM | GI50 ([1]; 72 h): < 500 nM
2 | CCNC(=O)C[C@@H]1N=C(c2ccc(CCC3CN(c4ccc(C(=O)N[C@H]5CC[C@H](Oc6ccc(C#N)c(Cl)c6)CC5)nn4)C3)cc2)c2c(sc(C)c2C)-n2c(C)nnc21 [I-31] | < 500 nM | 500 to 1500 nM | 500 to 1500 nM | GI50 ([1]; 72 h): < 500 nM
3 | CCNC(=O)C[C@@H]1N=C(c2ccc(CN3CC4CN(c5ccc(C(=O)N[C@H]6CC[C@H](Oc7ccc(C#N)c(Cl)c7)CC6)nn5)CC4C3)cc2)c2c(sc(C)c2C)-n2c(C)nnc21 (some centres unmarked) [I-32] | < 500 nM | 1500 to 3000 nM | 500 to 1500 nM | GI50 ([1]; 72 h): < 500 nM
4 | CCNC(=O)C[C@@H]1N=C(c2ccc(CCCC3CCN(c4ccc(C(=O)N[C@H]5CC[C@H](Oc6ccc(C#N)c(Cl)c6)CC5)nn4)CC3)cc2)c2c(sc(C)c2C)-n2c(C)nnc21 [I-33] | < 500 nM | 500 to 1500 nM | 500 to 1500 nM | 
5 | Cc1sc2c(c1C)C(c1ccc(C[C@H]3CCC4CN(c5ccc(C(=O)N[C@H]6CC[C@H](Oc7ccc(C#N)c(Cl)c7)CC6)nn5)CCN4C3)cc1)=N[C@@H](Cc1ncco1)c1nnc(C)n1-2 (some centres unmarked) [I-258] | < 500 nM |  | < 500 nM | 
6 | Cc1sc2c(c1C)C(c1ccc(C[C@@H]3CCC4CN(c5ccc(C(=O)N[C@H]6CC[C@H](Oc7ccc(C#N)c(Cl)c7)CC6)nn5)CCN4C3)cc1)=N[C@@H](Cc1ncco1)c1nnc(C)n1-2 (some centres unmarked) [I-259] | < 500 nM |  | < 500 nM | 
7 | Cc1sc2c(c1C)C(c1ccc(C[C@@H]3CC[C@]4(C3)CN(c3ccc(C(=O)N[C@H]5CC[C@H](Oc6ccc(C#N)c(Cl)c6)CC5)nn3)CCO4)cc1)=N[C@@H](Cc1ncco1)c1nnc(C)n1-2 [I-264] | 1500 to 3000 nM |  | > 3000 nM | 
8 | Cc1sc2c(c1C)C(c1ccc(C[C@@H]3CC[C@@]4(C3)CN(c3ccc(C(=O)N[C@H]5CC[C@H](Oc6ccc(C#N)c(Cl)c6)CC5)nn3)CCO4)cc1)=N[C@@H](Cc1ncco1)c1nnc(C)n1-2 [I-265] |  |  |  | GI50 (VCaP cells): 1500 to 3000 nM; GI50 (T47D cells): > 3000 nM
9 | Cc1sc2c(c1C)C(c1ccc(NCC(=O)N3CCC(c4ccc(C(=O)N[C@H]5CC[C@H](Oc6ccc(C#N)c(Cl)c6)CC5)nn4)CC3)cc1)=N[C@@H](Cc1ncco1)c1nnc(C)n1-2 [I-268] | > 3000 nM |  | 500 to 1500 nM | 
10 | Cc1sc2c(c1C)C(c1ccc(C(=O)N3CC[C@@]4(CCCN(c5ccc(C(=O)N[C@H]6CC[C@H](Oc7ccc(C#N)c(Cl)c7)CC6)nn5)C4)C3)cc1)=N[C@@H](Cc1ncco1)c1nnc(C)n1-2 [I-269] | > 3000 nM |  | 1500 to 3000 nM | 
11 | Cc1sc2c(c1C)C(c1ccc(C(=O)N3CC[C@]4(CCCN(c5ccc(C(=O)N[C@H]6CC[C@H](Oc7ccc(C#N)c(Cl)c7)CC6)nn5)C4)C3)cc1)=N[C@@H](Cc1ncco1)c1nnc(C)n1-2 [I-270] | 500 to 1500 nM |  | > 3000 nM | 
12 | Cc1sc2c(c1C)C(c1ccc(C(=O)N3CC[C@@]4(CCCN(c5ccc(C(=O)N[C@H]6CC[C@H](Oc7ccc(C#N)c(Cl)c7)CC6)nn5)C4)C3)cc1)=N[C@H](Cc1ncco1)c1nnc(C)n1-2 [I-271] | > 3000 nM |  | > 3000 nM | 
13 | Cc1sc2c(c1C)C(c1ccc(CN(C)C(=O)CCc3ccc(C(=O)N[C@H]4CC[C@H](Oc5ccc(C#N)c(Cl)c5)CC4)nn3)cc1)=N[C@@H](Cc1ncco1)c1nnc(C)n1-2 [I-273] | < 500 nM |  | 500 to 1500 nM | 
14 | Cc1sc2c(c1C)C(c1ccc(C(=O)N3CCC[C@@H](Cc4ccc(C(=O)N[C@H]5CC[C@H](Oc6ccc(C#N)c(Cl)c6)CC5)nn4)C3)cc1)=N[C@@H](Cc1ncco1)c1nnc(C)n1-2 [I-274] | > 3000 nM |  | > 3000 nM | 
15 | Cc1sc2c(c1C)C(c1ccc(C#CC3CC4(C3)CN(c3ccc(C(=O)N[C@H]5CC[C@H](Oc6ccc(C#N)c(Cl)c6)CC5)nn3)C4)cn1)=N[C@@H](Cc1ncco1)c1nnc(C)n1-2 [I-280] | < 500 nM |  | > 3000 nM | 
16 | Cc1sc2c(c1C)C(c1ccc(C#CC3CC4(C3)CN(c3ccc(C(=O)N[C@H]5CC[C@H](Oc6ccc(C#N)c(Cl)c6)CC5)nn3)C4)nc1)=N[C@@H](Cc1ncco1)c1nnc(C)n1-2 [I-282] | > 3000 nM |  | > 3000 nM | 
17 | Cc1sc2c(c1C)C(c1ccc(CC3CCC4CN(c5ccc(C(=O)N[C@H]6CC[C@H](Oc7ccc(C#N)c(Cl)c7)CC6)nn5)CCN4C3)cc1)=N[C@@H](Cc1ncco1)c1nnc(C)n1-2 (some centres unmarked) [I-283] | < 500 nM |  | < 500 nM | 
18 | Cc1sc2c(c1C)C(c1ccc(OC[C@H]3C[C@]4(CCCN(c5ccc(C(=O)N[C@H]6CC[C@H](Oc7ccc(C#N)c(Cl)c7)CC6)nn5)C4)C3)cc1)=N[C@@H](C)c1nnc(C)n1-2 [I-309] |  | > 3000 nM | 500 to 1500 nM | GI50 ([1]; 72 h): < 500 nM
19 | Cc1sc2c(c1C)C(c1ccc(OC[C@H]3C[C@]4(CCCN(c5ccc(C(=O)N[C@H]6CC[C@H](Oc7ccc(C#N)c(Cl)c7)CC6)nn5)C4)C3)cc1)=N[C@@H](C)c1nnc(C)n1-2 [I-354] | < 500 nM |  |  | GI50 [2]: > 3000 nM; GI50 (T47D cells): 500 to 1500 nM
20 | Cc1sc2c(c1C)C(c1ccc(C3CCC4(CC3)CCN(c3ccc(C(=O)N[C@H]5CC[C@H](Oc6ccc(C#N)c(Cl)c6)CC5)nn3)C4)cc1)=N[C@@H](Cc1ncco1)c1nnc(C)n1-2 (stereo partly drawn) [I-824, N-((1r,4r)-4-(3-chloro-4-cyanophenoxy)cyclohexyl)-6-(8-(4-((S)-2,3,9-trimethyl-6-(oxazol-2-ylmethyl)-6H-thieno[3,2-f][1,2,4]triazolo[4,3-a][1,4]diazepin-4-yl)phenyl)-2-azaspiro[4.5]decan-2-yl)pyridazine-3-carboxamide] |  |  |  | GI50 [1]: < 500 nM; GI50 (VCaP cells): < 500 nM; GI50 [2]: < 500 nM
21 | Cc1sc2c(c1C)C(c1ccc(N3C[C@@H]4CN(c5ccc(C(=O)N[C@H]6CC[C@@H](Oc7ccc(C#N)c(Cl)c7)CC6)nn5)C[C@@H]4C3)cc1)=N[C@@H](Cc1ncco1)c1nnc(C)n1-2 [I-825, 6-[(3aR,6aS)-2-[4-[(9S)-4,5,13-trimethyl-9-(oxazol-2-ylmethyl)-3-thia-1,8,11,12-tetrazatricyclo[8.3.0.02,6]trideca-2(6),4,7,10,12-pentaen-7-yl]phenyl]-1,3,3a,4,6,6a-hexahydropyrrolo[3,4-c]pyrrol-5-yl]-N-[4-(3-chloro-4-cyano-phenoxy)cyclohexyl]pyridazine-3-carboxamide] | < 500 nM | < 500 nM |  | GI50 ([1]; 72 h): < 500 nM
22 | Cc1sc2c(c1C)C(c1ccc(N3C[C@@]4(C)CN(c5ccc(C(=O)N[C@H]6CC[C@H](Oc7ccc(C#N)c(Cl)c7)CC6)nn5)C[C@@]4(C)C3)cc1)=N[C@@H](Cc1ncco1)c1nnc(C)n1-2 [I-826, 6-[(3aS,6aR)-3a,6a-dimethyl-2-[4-[(9S)-4,5,13-trimethyl-9-(oxazol-2-ylmethyl)-3-thia-1,8,11,12-tetrazatricyclo[8.3.0.02,6]trideca-2(6),4,7,10,12-pentaen-7-yl]phenyl]-1,3,4,6-tetrahydropyrrolo[3,4-c]pyrrol-5-yl]-N-[4-(3-chloro-4-cyano-phenoxy)cyclohexyl]pyridazine-3-carboxamide] | < 500 nM | < 500 nM |  | GI50 ([1]; 72 h): < 500 nM
